Where a name gives a salt, the structure may show the parent alone. Read-outs that look alike come from different tables or passages of the source.
Tests used:
[1] = Solubility in water and artificial gastric juice (Table 1); type: physicochemical
[2] = animal experiments, commencement of activity; type: in vivo; conditions: in words
[3] = system: Spontaneously Hypertensive Rats; test: blood pressure lowering after oral administration, Spontaneously Hypertensive Rats (Table 2); type: in vivo
Text: |Spontaneously Hypertensive Rats

[4] = stress test, 2 weeks, heat or light (stability); type: physicochemical
Protocol: The hydrochloride is unstable even at ambient temperature and a stress test gave, after heating for 2 weeks at 45° C. in the dark, 10% of decomposition products and at ambient temperature in the light 30% of the compound had decomposed after 2 weeks.
In addition, it is also stable under the above-mentioned stress conditions (2 weeks at 45° C. in the dark and 2 weeks at ambient temperature in the light).

[5] = pharmacological results, blood pressure lowering activity compared with other derivatives; type: in vivo; conditions: in comparison with the other derivatives, in words
Text: The pharmacological results are even more marked in the case of the […] which were obtained according to the usual methods of racemate separation.

[6] = Spontaneously Hypertensive Rats, 1 mg/kg PO, n = 6, 1 mg/kg

Row | Structure (SMILES) | Solubility in Artificial Gastric Juice [1] [%] | solubility in water ([1]; in words) | solubility in water ([1]; water) [%] | commencement of activity [2] | blood pressure lowering action [3, 6] | degraded at 336 h ([4]; after heating for 2 weeks at 45° C. in the dark, read-out: decomposition products) [%] | degraded at 336 h ([4]; ambient temperature in the light, after 2 weeks, read-out: decomposed compound) [%] | stability ([4]; ambient temperature, in words) | blood pressure lowering activity [5] | commencement of activity ([3]; rats, oral administration, fumarate compared with hydrochloride, in words) | blood pressure lowering action ([3]; rats, oral, fumarate compared with hydrochloride, in words) | stability under stress conditions ([4]; 2 weeks at 45° C. in the dark and 2 weeks at ambient temperature in the light, in words)
1 | CC1=C(C(=O)OCCN(C)Cc2ccccc2)C(c2ccccc2C(F)(F)F)c2c(ccnc2OC(C)C)N1 (single isomer, unassigned) [Hydrochloride, reference compound] | 20 | good solubility | 20 | very rapid commencement of activity | 17% ± 4.4 | 10 | 30 | unstable |  |  |  | 
2 | CC1=C(C(=O)OCCN(C)Cc2ccccc2)C(c2ccccc2C(F)(F)F)c2c(ccnc2OC(C)C)N1 (single isomer, unassigned; (+)) [(+)-1,4-dihydro-5-isopropoxy-2-methyl-4-(2-trifluoro-methylphenyl)-1,6-naphthyridine-3-carboxylic acid [2-(N-methyl-N-phenylmethylamino)-ethyl] ester] |  |  |  |  |  |  |  |  | Especially active |  |  | 
3 | CC1=C(C(=O)OCCN(C)Cc2ccccc2)C(c2ccccc2C(F)(F)F)c2c(ccnc2OC(C)C)N1 (single isomer, unassigned; (+)) [Fumarate, (+)-1,4-dihydro-5-isopropoxy-2-methyl-4-(2-trifluoromethylphenyl)1,6-naphthyridine-3-carboxylic acid [2-(N-methyl-N-phenyl-methylamino)-ethyl] ester fumarate] | 1.5 | considerable lower water solubility | 0.1 |  | 26% ± 1.7 |  |  |  |  | somewhat later | substantially stronger | stable
4 | CC1=C(C(=O)OCCN(C)Cc2ccccc2)C(c2ccccc2C(F)(F)F)c2c(ccnc2OC(C)C)N1 (racemic) [(±), (±)-1,4-dihydro-5-isopropoxy-2-methyl-4-(2-trifluoromethylphenyl)-1,6-naphthyridine-3-carboxylic acid [2-(N-methyl-N-phenyl-methylamino)-ethyl] ester fumarate] |  |  |  |  |  |  |  |  | especially marked blood pressure lowering activity |  |  | 

From patent US5039679A, “Certain derivatives of 1,4-dihydro-5-isopropoxy-1,6-naphthyridine-3-carboxylic acid, pharmaceutical compositions containing them, and methods of using them” (Goedecke Aktiengesellschaft, priority 1989, dated 1991)
